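These data come from cells grown in 96-well plates and exposed to compound for 48 hours at five concentrations. TGI is the concentration that stops growth completely.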
Key:
Experiment in all cases: NCI tumour cell line growth inhibition, 48 h
NCI-H23 lung = system: NCI-H23 lung
SK-MEL-28 melanoma = system: SK-MEL-28 melanoma
SNB-19 CNS = system: SNB-19 CNS
IGROV1 ovarian = system: IGROV1 ovarian
HOP-62 NSCLC = system: HOP-62 NSCLC
MDA-MB-231 breast = system: MDA-MB-231 breast
HT29 colon = system: HT29 colon
SF-539 CNS = system: SF-539 CNS
HCT-116 colon = system: HCT-116 colon
HS 578T breast = system: HS 578T breast
PC-3 prostate = system: PC-3 prostate
MDA-N = system: MDA-N
HOP-92 NSCLC = system: HOP-92 NSCLC
UACC-257 melanoma = system: UACC-257 melanoma
UO-31 renal = system: UO-31 renal

SMILES | TGI (NCI-H23 lung) [µM] | TGI (SK-MEL-28 melanoma) [µM] | TGI (SNB-19 CNS) [µM] | TGI (IGROV1 ovarian) [µM] | TGI (HOP-62 NSCLC) [µM] | TGI (MDA-MB-231 breast) [µM] | TGI (HT29 colon) [µM] | TGI (SF-539 CNS) [µM] | TGI (HCT-116 colon) [µM] | TGI (HS 578T breast) [µM] | TGI (PC-3 prostate) [µM] | TGI (MDA-N) [µM] | TGI (HOP-92 NSCLC) [µM] | TGI (UACC-257 melanoma) [µM] | TGI (UO-31 renal) [µM]
CCOP(=O)(OCC)C(C)(CC)N/C(=N/C(NC(C)=O)(C(F)(F)F)C(F)(F)F)NC1=NC(C(F)(F)F)(C(F)(F)F)N=C(C(F)(F)F)O1 (centres undefined) | 91.5 | > 100 | > 100 | > 100 | > 100 | 48.7 | > 100 | > 100 | > 100 | > 100 | 77.6 | > 100 | 63.9 | 94.8 | –
COC(=O)C1CN=CN1CCc1ccccc1 (centres undefined) | > 100 | > 100 | > 100 | > 100 | – | > 100 | > 100 | > 100 | > 100 | > 100 | > 100 | > 100 | > 100 | > 100 | > 100
O=C1NCc2ccccc2S(=O)(=O)n2cccc21 | > 100 | > 100 | > 100 | > 100 | > 100 | > 100 | > 100 | > 100 | > 100 | > 100 | > 100 | > 100 | – | > 100 | > 100
O=C1CSC(c2ccc([N+](=O)[O-])cc2)N1c1ccc(-n2c(-c3ccccc3)nc3ccccc3c2=O)cc1 (centres undefined) | > 100 | > 100 | > 100 | > 100 | > 100 | > 100 | > 100 | > 100 | > 100 | > 100 | > 100 | > 100 | – | > 100 | 29.3
CN1CCN(c2ncc3c(n2)sc2c(=O)n(-c4ccccc4)cnc23)CC1 | > 100 | > 100 | > 100 | > 100 | > 100 | > 100 | > 100 | – | > 100 | > 100 | > 100 | > 100 | > 100 | > 100 | > 100
C[C@@H](c1ccccc1)N1CN(C(=O)OCc2ccccc2)C(C)(C)CC1=O | > 100 | > 100 | > 100 | > 100 | > 100 | > 100 | > 100 | > 100 | > 100 | > 100 | > 100 | > 100 | > 100 | > 100 | –
CCOC(=O)c1c(N)sc2c1C(C)(C(=O)OCC)CC2 (centres undefined) | > 100 | > 100 | > 100 | > 100 | > 100 | > 100 | > 100 | – | > 100 | > 100 | > 100 | > 100 | > 100 | > 100 | > 100
COC(=O)c1sc(=S)sc1SCc1ccc(CSc2sc(=S)sc2C(=O)OC)cc1 | > 100 | > 100 | > 100 | > 100 | > 100 | > 100 | > 100 | – | > 100 | > 100 | > 100 | > 100 | > 100 | > 100 | > 100
NC(=O)c1cc2ccc(O)cc2oc1=Nc1ccccc1 | 56 | > 100 | > 100 | > 100 | > 100 | > 100 | > 100 | – | > 100 | > 100 | > 100 | > 100 | > 100 | > 100 | > 100
O=C1NC(=S)N/C1=C\c1ccc(Br)s1 | > 100 | > 100 | > 100 | > 100 | > 100 | > 100 | > 100 | – | > 100 | > 100 | > 100 | > 100 | > 100 | > 100 | > 100
COc1ccc(-n2cnc3c2NC(C)(C)N=C3C(N)=O)c(OC)c1 | > 100 | > 100 | > 100 | > 100 | > 100 | > 100 | > 100 | > 100 | > 100 | > 100 | > 100 | > 100 | > 100 | > 100 | –
CC(=O)OCC1OC(c2nc3ccccc3s2)=CC(OC(C)=O)C1OC(C)=O (centres undefined) | > 100 | > 100 | > 100 | > 100 | > 100 | > 100 | > 100 | > 100 | > 100 | > 100 | > 100 | > 100 | – | > 100 | > 100
O=C(c1ccc(Cl)cc1)N(C(=O)N1CCC(c2ccccc2)CC1)c1ccccc1 | > 100 | > 100 | > 100 | > 100 | – | > 100 | > 100 | > 100 | > 100 | > 100 | 73.8 | > 100 | – | 83 | 98.7
Cn1c2ccc3cc2c(=S)c2cc(ccc21)OCCOCCOCCOCCOCCO3 | > 10 | > 10 | > 10 | > 10 | > 10 | > 10 | > 10 | > 10 | > 10 | > 10 | > 10 | > 10 | > 10 | > 10 | –
C=CCC1(OC(C)=O)C2OC(=O)C1(O)OCC2O (centres undefined) | > 100 | > 100 | > 100 | > 100 | > 100 | > 100 | > 100 | > 100 | > 100 | > 100 | > 100 | > 100 | – | > 100 | > 100
Cc1nn(C(=O)c2ccc(Cl)cc2)c2c1C(c1ccccc1[N+](=O)[O-])SC(N)=N2 (centres undefined) | > 10 | – | > 10 | > 10 | > 10 | > 10 | > 10 | > 10 | > 10 | > 10 | > 10 | > 10 | > 10 | > 10 | –
COC(=O)CNS(=O)(=O)c1ccc(-c2c3nc(c(-c4ccc(S(=O)(=O)NCC(=O)OC)cc4)c4ccc([nH]4)c(-c4ccc(S(=O)(=O)NCC(=O)OC)cc4)c4nc(c(-c5ccc(S(=O)(=O)NCC(=O)OC)cc5)c5ccc2[nH]5)C=C4)C=C3)cc1 | > 100 | > 100 | > 100 | > 100 | > 100 | > 100 | > 100 | > 100 | > 100 | > 100 | > 100 | > 100 | – | > 100 | > 100
O=c1ccn([C@@H]2C[C@@H]2CO)c(=O)[nH]1 | > 100 | > 100 | > 100 | > 100 | > 100 | – | > 100 | > 100 | > 100 | > 100 | > 100 | > 100 | > 100 | > 100 | > 100
CCSc1n/c(=C\c2ccco2)c2nncn12 | > 100 | > 100 | > 100 | > 100 | > 100 | > 100 | > 100 | – | > 100 | > 100 | > 100 | > 100 | > 100 | – | > 100
Clc1cc(Cl)cc(C=NC23CC4CC(CC(C4)C2)C3)c1 | > 10 | > 10 | > 10 | > 10 | > 10 | > 10 | > 10 | > 10 | > 10 | > 10 | > 10 | > 10 | > 10 | > 10 | –
O=S(Nc1ccccc1)c1cccc(Cl)c1 (centres undefined) | > 100 | > 100 | > 100 | > 100 | > 100 | > 100 | > 100 | 77.6 | > 100 | > 100 | > 100 | > 100 | – | > 100 | > 100
CCn1c(SCC(=O)NNC(=S)Nc2ccc([N+](=O)[O-])cc2)nc2ccccc2c1=O | > 100 | > 100 | > 100 | > 100 | > 100 | > 100 | – | > 100 | > 100 | > 100 | > 100 | > 100 | – | > 100 | > 100
Cc1nn(C(=O)Cc2ccccc2)c2c1C(c1ccc(O)cc1O)SC(N)=N2 (centres undefined) | > 100 | > 100 | > 100 | > 100 | > 100 | > 100 | > 100 | > 100 | > 100 | > 100 | > 100 | > 100 | – | > 100 | > 100
CC(=O)O[C@H]1C(=O)[C@@]2(C)[C@H]([C@H](OC(=O)c3ccccc3)[C@]3(O)C[C@H](OC(=O)[C@H](O)[C@@H](NC(=O)c4cccc(N=[N+]=[N-])c4)c4ccccc4)C(C)=C1C3(C)C)[C@]1(OC(C)=O)CO[C@@H]1C[C@@H]2O | – | > 22.8 | > 25 | > 25 | – | 0.422 | > 6.26 | 0.0133 | – | 0.0712 | > 25 | 0.00735 | > 23.9 | – | > 25

Source: PubChem BioAssay (NCI)
